One assay addresses IDO1 enzyme (Homo sapiens, UniProt P14902). Briefly: Determination of biochemical activity of IDO1 enzyme (absorbance at 320 nm). As to conditions: room temperature, 3 hours. Here is the method:
(1) Method for Determining Biochemical Activity of IDO1 Enzyme
Firstly, 15 μl of buffer solution of sodium hydrogen phosphate (PH:7-8), 5 μl of reaction buffer solution containing a proper amount of IDO-1 enzyme and heterocyclic urea compound prepared by the invention were added into wells of a microplate, mixed evenly, and reacted at room temperature for 3 hours; then a light absorption value at 320 nm wavelength was detected by using Envision Multilabel Reader of PE company, an inhibition rate of the heterocyclic urea compound on the enzyme reaction was calculated according to an absorption ratio, and an IC50 value of the heterocyclic urea compound was calculated through analysis by GraphPad.

For assay [1], the target named is T1, IDO1 enzyme in the Hela cell (Homo sapiens, UniProt P14902).
T1 construct: endogenous in cells; host or cells: HeLa cells stimulated with interferon γ (100 ng/ml)
Nature of the assay: Cell activity: interferon γ-stimulated Hela cells, absorbance of supernatant at 480 nm. Format: cell-based. The note with it: interferon γ 100 ng/ml, 72 hours. Here is the method: (2) Method for Determining Cell Activity
Hela cells were cultured and passaged in a DMEM medium supplemented with antibiotics in a 37° C. CO2 incubator, inoculated into a 96-well plate for overnight culture, then 1 μl of heterocyclic urea compound with appropriate concentration was added to each well, and then 100 μl of interferon γ (final concentration was 100 ng/ml) was added. After the cells were continuously cultured for 72 hours, 70 μl of cell culture supernatant was added to a 96-well V-bottom plate, 5 μl of trichloroacetic acid (6.1 N) was added to each well, incubated at 50° C. for 30 min, then taken out and centrifuged at […] for 10 min. The above centrifuged supernatant was transferred to a 384-well microplate (20 μl/well), then 20 μl of 2% didimethylaminobenzaldehyde acetic acid solution was added to each well, shaken and mixed evenly, then photometric absorption was performed at 480 nm, and values were measured.

27 compounds from patent US11014895B2, “Heterocyclic urea compound, and drug composition and application thereof” (CHINA PHARMACEUTICAL UNIVERSITY, priority 2017, dated 2021) can be followed below.

T1 sequence (P14902 whole entry): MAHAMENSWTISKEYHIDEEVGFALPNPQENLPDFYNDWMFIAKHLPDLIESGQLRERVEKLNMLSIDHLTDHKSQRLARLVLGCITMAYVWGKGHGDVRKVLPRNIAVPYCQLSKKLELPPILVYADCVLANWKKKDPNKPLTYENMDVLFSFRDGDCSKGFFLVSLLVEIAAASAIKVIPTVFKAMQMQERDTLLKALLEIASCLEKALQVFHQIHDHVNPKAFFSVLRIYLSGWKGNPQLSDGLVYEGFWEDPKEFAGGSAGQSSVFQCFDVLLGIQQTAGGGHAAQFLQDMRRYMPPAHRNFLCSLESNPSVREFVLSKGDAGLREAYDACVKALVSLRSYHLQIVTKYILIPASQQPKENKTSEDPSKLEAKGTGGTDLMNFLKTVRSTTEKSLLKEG
Chain of IDO1 enzyme (P14902 whole entry): as above

Consider `NCCNC(=O)Nc1nonc1/C(=N/O)Nc1ccc(F)c(Br)c1` [Embodiment 16, (Z)-1-(4-(N-(3-bromo-4-fluorophenyl)-N′-hydroxyaminoiminomethyl)-1,2,5-oxadiazole-3-substituted)-3-(2-aminoethyl)urea], for which the half-maximal inhibitory concentration (IC50) (at IDO1 enzyme; in assay [1]) was 0.1 to 1 µM in each case.

Take `O=C(Nc1nocc1/C(=N/O)Nc1ccc(F)c(Br)c1)NC1CCNCC1` [Embodiment 85, (Z)-1-(4-(N-(3-bromo-4-fluorophenyl)-N′-hydroxyaminoiminomethyl)-isoxazole-3-substituted)-3-(piperidine-4-substituted)urea]: the IC50 (against IDO1 enzyme; in assay [1]) was below 0.001 µM in each case.

On to `COc1cccc(NC(=O)Nc2nocc2/C(=N/O)Nc2ccc(F)c(Br)c2)c1` [Embodiment 80, (Z)-1-(4-(N-(3-bromo-4-fluorophenyl)-N′-hydroxyaminoiminomethyl)-isoxazole-3-substituted)-3-(3-methoxyphenyl)urea], for which the IC50 (against IDO1 enzyme; in assay [1]) was above 1 µM each time.

Turning to `OCCNC(=S)Nc1nonc1/C(=N/O)Nc1ccc(F)c(Br)c1` [Embodiment 128, (Z)-1-(4-(N-(3-bromo-4-fluorophenyl)-N′-hydroxyaminoiminomethyl)-1,2,5-oxadiazole-3-substituted)-3-(2-hydroxyethyl)thiourea], the concentration for half-maximal inhibition (IC50) (at IDO1 enzyme; in assay [1]) was below 0.001 µM throughout.

For `O=C(Nc1nocc1/C(=N/O)Nc1ccc(F)c(Cl)c1)NC1CCCCC1` [Embodiment 99, (Z)-1-(4-(N-(3-chloro-4-fluorophenyl)-N′-hydroxyaminoiminomethyl)-isoxazole-3-substituted)-3-(cyclohexyl)urea], the half-maximal inhibitory concentration (IC50) (against IDO1 enzyme; in assay [1]) was 0.1 to 1 µM each time.

For the compound `O=C(Nc1nonc1/C(=N/O)Nc1ccc(F)c(Br)c1)N1CCOCC1` [Embodiment 49, (Z)-1-(4-(N-(3-bromo-4-fluorophenyl)-N′-hydroxyaminoiminomethyl)-1,2,5-oxadiazole-3-substituted)morpholine-1-carbamide], the IC50 (at IDO1 enzyme; in assay [1]) was 0.1 to 1 µM in each case.

On to `O/N=C(\Nc1ccc(F)c(Br)c1)c1nonc1NC(=S)Nc1ccc(C(F)(F)F)cc1` [Embodiment 119, (Z)-1-(4-(N-(3-bromo-4-fluorophenyl)-N′-hydroxyaminoiminomethyl)-1,2,5-oxadiazole-3-substituted)-3-(4-trifluoromethylphenyl)thiourea], for which the 50% inhibitory concentration (IC50) (against IDO1 enzyme; in assay [1]) was above 1 µM throughout.

As to `O=C(Nc1nonc1/C(=N/O)Nc1ccc(F)c(Br)c1)NC1CCCCCC1` [Embodiment 33, (Z)-1-(4-(N-(3-bromo-4-fluorophenyl)-N′-hydroxyaminoiminomethyl)-1,2,5-oxadiazole-3-substituted)-3-cycloheptylurea], the IC50 (on IDO1 enzyme; in assay [1]) was 0.1 to 1 µM throughout.

With `COc1ccc(NC(=N)Nc2nonc2/C(=N/O)Nc2ccc(F)c(Br)c2)c(F)c1` [Embodiment 144], the IC50 (against IDO1 enzyme; in assay [1]) was 0.1 to 1 µM each time.

`N=C(Nc1ccccc1)Nc1conc1/C(=N/O)Nc1ccc(F)c(Cl)c1` [Embodiment 155, (Z)-1-(4-(N-(3-chloro-4-fluorophenyl)-N′-hydroxyaminoiminomethyl)-isoxazole-3-substituted)-4-phenylguanidine]: the IC50 (on IDO1 enzyme; in assay [1]) was 0.1 to 1 µM in each case.

In the case of `N=C(Nc1cocc1/C(=N/O)Nc1ccc(F)c(Br)c1)NC1CCCCC1` [Embodiment 162, (Z)-1-(4-(N-(3-bromo-4-fluorophenyl)-N′-hydroxyaminoiminomethyl)-furan-3-substituted)-3-cyclohexylguanidine], the IC50 (against IDO1 enzyme; in assay [1]) was 0.1 to 1 µM throughout.

On to `O/N=C(\Nc1ccc(F)c(Br)c1)c1conc1NC(=S)NC1CCCCC1` [Embodiment 135, (Z)-1-(4-(N-(3-bromo-4-fluorophenyl)-N′-hydroxyaminoiminomethyl)-isoxazole-3-substituted)-3-(cyclohexyl)thiourea], for which the 50% inhibitory concentration (IC50) (against IDO1 enzyme; in assay [1]) was 0.1 to 1 µM in each case.

As for `NS(=O)(=O)N1CCC(NC(=O)Nc2nonc2/C(=N/O)Nc2ccc(F)c(Br)c2)CC1` [Embodiment 15, (Z)-1-(4-(N-(3-bromo-4-fluorophenyl)-N′-hydroxyaminoiminomethyl)-1,2,5-oxadiazole-3-substituted)-3-(1(aminosulfonyl)piperidine-4-substituted)urea], the IC50 (at IDO1 enzyme; in assay [1]) was below 0.001 µM throughout.

For `N=C(Nc1ccc(N)cc1)Nc1nonc1/C(=N/O)Nc1ccc(F)c(Br)c1` [Embodiment 142, (Z)-1-(4-(N-(3-bromo-4-fluorophenyl)-N′-hydroxyaminoiminomethyl)-1,2,5-oxadiazole-3-substituted)-3-(4-aminophenyl)guanidine], the IC50 (against IDO1 enzyme; in assay [1]) was below 0.001 µM throughout.

With `O=C(Nc1ccsc1)Nc1nonc1/C(=N/O)Nc1ccc(F)c(Br)c1` [Embodiment 42, (Z)-1-(4-(N-(3-bromo-4-fluorophenyl)-N′-hydroxyaminoiminomethyl)-1,2,5-oxadiazole-3-substituted)-3-(thiophene-3-substituted)urea], the IC50 (at IDO1 enzyme; in assay [1]) was above 1 µM each time.

For `N=C(Nc1nonc1/C(=N/O)Nc1ccc(F)c(Br)c1)NC1CC1` [Embodiment 149, (Z)-1-(4-(N-(3-bromo-4-fluorophenyl)-N′-hydroxyaminoiminomethyl)-1,2,5-oxadiazole-3-substituted)-3-(cyclopropyl)guanidine], the IC50 (against IDO1 enzyme; in assay [1]) was above 1 µM in each case.

For the compound `O=C(Nc1ccccc1)Nc1nocc1/C(=N/O)Nc1ccc(F)c(Cl)c1` [Embodiment 98, (Z)-1-(4-(N-(3-chloro-4-fluorophenyl)-N′-hydroxyaminoiminomethyl)-isoxazole-3-substituted)-3-(phenyl)urea], the IC50 (against IDO1 enzyme; in assay [1]) was 0.1 to 1 µM each time.

Regarding `NCCCNC(=O)Nc1cocc1/C(=N/O)Nc1ccc(F)c(Br)c1` [Embodiment 67, (Z)-1-(4-(N-(3-bromo-4-fluorophenyl)-N′-hydroxyaminoiminomethyl)-furan-3-substituted)-3-(3-aminopropyl)urea], the IC50 (on IDO1 enzyme; in assay [1]) was 0.1 to 1 µM throughout.

As for `O=C(Nc1nonc1/C(=N/O)Nc1ccc(F)c(Br)c1)N1CCNCC1` [Embodiment 48, (Z)-1-(4-(N-(3-bromo-4-fluorophenyl)-N′-hydroxyaminoiminomethyl)-1,2,5-oxadiazole-3-substituted)piperazine-1-carbamide], the IC50 (on IDO1 enzyme; in assay [1]) was 0.1 to 1 µM in each case.

As to `N=C(Nc1ccccc1)Nc1nonc1/C(=N/O)Nc1ccc(F)c(Br)c1` [Embodiment 140, (Z)-1-(4-(N-(3-bromo-4-fluorophenyl)-N′-hydroxyaminoiminomethyl)-1,2,5-oxadiazole-3-substituted)-3-phenylguanidine], the IC50 (against IDO1 enzyme; in assay [1]) was 0.1 to 1 µM in each case.

For `O=C(Nc1ccc(O)cc1)Nc1nonc1/C(=N/O)Nc1ccc(F)c(Cl)c1` [Embodiment 23], the IC50 (at IDO1 enzyme; in assay [1]) was below 0.001 µM in each case.

Consider `Cc1ccc(NC(=O)Nc2nonc2/C(=N/O)Nc2ccc(F)c(Br)c2)cc1` [Embodiment 4], for which the IC50 (against IDO1 enzyme; in assay [1]) was above 1 µM in each case.

Regarding `O=C(Nc1cocc1/C(=N/O)Nc1ccc(F)c(Br)c1)NC1CCC(O)CC1` (stereo not drawn) [Embodiment 63, (Z)-1-(4-(N-(3-bromo-4-fluorophenyl)-N′-hydroxyaminoiminomethyl)-furan-3-substituted)-3-(4-hydroxycyclohexyl)urea], the half-inhibitory concentration (IC50) (against IDO1 enzyme; in assay [1]) was below 0.001 µM throughout.

On to `N=C(Nc1nonc1/C(=N/O)Nc1ccc(F)c(Br)c1)NC1CCCC1` [Embodiment 146, (Z)-1-(4-(N-(3-bromo-4-fluorophenyl)-N′-hydroxyaminoiminomethyl)-1,2,5-oxadiazole-3-substituted)-3-cyclopentylguanidine], for which the half-inhibitory concentration (IC50) (at IDO1 enzyme; in assay [1]) was above 1 µM each time.

Regarding `O=C(Nc1nonc1/C(=N/O)Nc1ccc(F)c(Br)c1)Nc1c[nH]c2ccccc12` [Embodiment 37, (Z)-1-(4-(N-(3-bromo-4-fluorophenyl)-N′-hydroxyaminoiminomethyl)-1,2,5-oxadiazole-3-substituted)-3-(1H-indole-3-substituted)urea], the concentration for half-maximal inhibition (IC50) (against IDO1 enzyme; in assay [1]) was 0.1 to 1 µM throughout.

For the compound `O/N=C(\Nc1ccc(F)c(Br)c1)c1nonc1NC(=S)NC1CCCC1` [Embodiment 122, (Z)-1-(4-(N-(3-bromo-4-fluorophenyl)-N′-hydroxyaminoiminomethyl)-1,2,5-oxadiazole-3-substituted)-3-(cyclopentyl)thiourea], the IC50 (against IDO1 enzyme; in assay [1]) was above 1 µM each time.

`O=C(Nc1cocc1/C(=N/O)Nc1ccc(F)c(Br)c1)NC1CCCCC1` [Embodiment 61, (Z)-1-(4-(N-(3-bromo-4-fluorophenyl)-N′-hydroxyaminoiminomethyl)-furan-3-substituted)-3-cyclohexylurea]: the IC50 (at IDO1 enzyme; in assay [1]) was 0.1 to 1 µM in each case.

In general, IC50 refers to the concentration needed to halve the response being measured. The low end stands for higher potency, the high end for lower potency.
